Laboratory results reported in publication PMC12366525, “Characterization of allosteric modulators that disrupt androgen receptor co-activator protein-protein interactions to alter transactivation–Drug leads for metastatic castration resistant prostate cancer” (SLAS discovery : advancing life sciences R & D, 2023).

Experiments:
Format in all cases: cell-based
U-2 OS cells = assay: AR-TIF2 PPIB cell loss (Hoechst stained nuclei); conditions: 4.5 h compound exposure
Protocol: The AR-TIF2 PPIB HCS assay was performed in U-2 OS osteosarcoma cells as described previously. Briefly, U-2 OS cells were coinfected with recombinant adenovirus biosensor expression constructs and seeded at 2500 cells per well in 384-well collagen-coated microplates (Greiner BioOne #781956) and plates were incubated overnight at 37°C in 5% CO2 and 95% humidity. […] After the appropriate time, assay plates were fixed by transfer of 50 μL of pre-warmed (37°C) 7.4% formaldehyde and 2 μg/mL Hoechst 33342 in PBS and incubation at room temperature for 30 min. Liquid was aspirated, plates were washed twice with 85 μL PBS, leaving the final wash in the plate. Plates were sealed with adhesive aluminum plate seals, and fluorescent images of three fields of view were acquired in the DAPI (Hoechst stained nuclei), FITC (TIF2-GFP) and Texas Red (AR-RFP) channels on an ImageXpress Micro (IXM) automated HCS platform (Molecular Devices LLC, Sunnyvale, CA) using a 10X Plan Fluor 0.3 NA objective. Images were analyzed using the Translocation Enhanced (TE) image analysis module of the MetaXpress software as described previously.

AR-LBD and SRC1 = biological target: T1, AR-LBD and SRC1 (Homo sapiens, UniProt P10275); assay: SRC1 mammalian 2-hybrid (M2H) assay; conditions: HEK 293 cells; 25 nM DHT; 27 h compound exposure; read-out: M2H AR-SRC1 CoA Recruitment IC50
T1 construct: AR-LBD amino acids 658–919 expressed as a fusion protein with Gal4-DBD; expressed in transfected cells; host or cells: HEK 293
T1 sequence (P10275 658-919): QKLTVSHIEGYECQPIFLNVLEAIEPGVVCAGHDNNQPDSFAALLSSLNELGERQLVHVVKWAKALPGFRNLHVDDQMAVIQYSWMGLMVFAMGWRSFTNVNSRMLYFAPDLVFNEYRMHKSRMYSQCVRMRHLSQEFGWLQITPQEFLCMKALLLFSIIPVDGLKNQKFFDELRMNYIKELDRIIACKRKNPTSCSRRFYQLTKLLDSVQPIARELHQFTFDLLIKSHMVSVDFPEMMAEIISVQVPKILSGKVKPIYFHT
From the text: The 5xGAL4-TATA-luciferase reporter plasmid was a gift from Dr. Richard Maurer from the Oregon Health and Science University, and constructs pGAL4-hAR-658–919 (AR-LBD amino acids 658–919 expressed as a fusion protein with Gal4-DBD), pVP16-SRC1 (full--length SRC1 expressed as a fusion with VP16 activation domain) and pVP16-Empty vector were kindly provided to us by Dr. Elizabeth Wilson, from UNC Chapel Hill. pVP16-TIF2 was generated as described previously. HEK 293 cells were transiently co-transfected with 5 ng of pGal4-AR-LBD, 10 ng of either pVP16-TIF2 or pVP16-SRC1, and 20 ng of the 5xGal4-TATA-Luc reporter as described previously. HEK 293 cells were bulk co-transfected with the three plasmids that had been individually incubated with Fugene 6 at a 3:1 ratio for 25 min at room temperature (RT) in serum free media (SFM) and then combined with HEK 293 cells that were suspended in DMEM (Cellgro10013CV) with 2 mM L-glutamine (Invitrogen) that was supplemented with 10% fetal bovine serum, and 5000 cells in a volume of 40 μL were seeded into the wells of white opaque 384-well assay plates (Greiner Bio-one, #781080) and cultured overnight at 37 °C, 5% CO2, and 95% humidity. […] 25 μL of BrightGlo® reagent was added to the plate and the relative luminescence units (RLUs) were captured on a SpectraMax M5e microtiter plate reader (Molecular Devices, LLC, San Jose, CA).

[1] = C4–2 PSA6.1-Luc viability counter screen; conditions: human, C4–2 cells (C4–2 PSA6.1-Luc); cytotoxicity counter screen; read-out: C4–2 PSA6.1-Luc viability CS GI50
AR-V7 = biological target: T2, AR-V7 (Homo sapiens, UniProt P10275); assay: UBE2C promoter driven luciferase reporter assay in PC3-AR-V7-GFP cells; conditions: constitutive, 24 h; read-out: PC-3-ARV7-GFP UBE2C-Luc Reporter IC50
T2 construct: expressed in transfected cells; host or cells: PC3 cells stably expressing AR-V7-GFP
T2 sequence (P10275 1-644 isoform P10275-3): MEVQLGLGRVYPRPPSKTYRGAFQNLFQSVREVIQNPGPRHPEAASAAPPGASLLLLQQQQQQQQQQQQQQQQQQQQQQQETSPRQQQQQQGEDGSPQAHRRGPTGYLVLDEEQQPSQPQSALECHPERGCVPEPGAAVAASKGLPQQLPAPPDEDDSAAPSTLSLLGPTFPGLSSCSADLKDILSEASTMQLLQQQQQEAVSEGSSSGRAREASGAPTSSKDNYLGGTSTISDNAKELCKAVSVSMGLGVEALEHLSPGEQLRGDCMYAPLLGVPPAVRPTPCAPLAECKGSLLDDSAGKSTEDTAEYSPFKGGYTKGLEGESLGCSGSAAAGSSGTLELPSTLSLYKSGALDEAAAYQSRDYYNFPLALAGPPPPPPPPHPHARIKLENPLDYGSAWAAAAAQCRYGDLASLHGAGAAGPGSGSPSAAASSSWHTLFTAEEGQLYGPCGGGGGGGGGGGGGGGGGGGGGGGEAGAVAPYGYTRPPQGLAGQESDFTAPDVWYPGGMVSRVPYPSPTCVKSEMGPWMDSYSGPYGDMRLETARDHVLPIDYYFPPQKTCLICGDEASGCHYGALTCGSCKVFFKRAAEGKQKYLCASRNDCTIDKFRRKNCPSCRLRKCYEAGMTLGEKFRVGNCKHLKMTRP
Protocol: The pGL4.28-UBE2C 20bpX3 luciferase reporter plasmid was provided by Dr. Yan Dong from Tulane University. Fugene HD and the UBE2C-Luc plasmid (10 ng/well) were combined at a 3:1 (μL:μg) ratio, in Opti-MEM and incubated for 25 min at RT before being added to PC3-AR-V7-GFP cells that were suspended in RPMI 1640 (Gibco) media containing 1% L-glutamine (Invitrogen), and 10% fetal bovine serum (Gemini Bio-products). Bulk transfected PC3-AR-V7-GFP cells were seeded into white opaque 384-well assay plates (Greiner Bio-one, #781080) at a density of 3000 cell per well in a volume of 40 μL and incubated at 5% CO2, 37 °C, and 95% humidity for 24 h. After 24 h, 10 μL of compounds were transferred to assay wells and the plates were returned to the incubator for an additional 24 h before 25 μL of BrightGlo luciferase reagent (Promega) was added to the wells and the RLU’s were captured on a SpectraMax M5e plate reader (Molecular Devices LLC) as described previously.

Compound | AR-TIF2 PPIB Cell Loss (U-2 OS cells) | IC50 (AR-LBD and SRC1) | IC50 (AR-V7) | GI50 [1]
Cc1ccccc1-c1cc(O)c2c(c1)CN(c1nc(C(N)=O)cs1)CCO2 [S1–1] | >100 µM | 3.57 µM | 34.7 µM | > 100 µM
Cc1ccccc1-c1cc(O)c2c(c1)CN(c1nccs1)CCO2 [S1–3] | >100 µM | 5.19 µM | – | –
Cc1nsc(NC(=O)N2CCC(Sc3ccccc3C)CC2)n1 [S2–6] | >100 µM | 0.46 µM | 14.5 µM | > 100 µM
Cc1c(-c2ccccc2F)[nH]c2ccc(CNC(=O)CCc3cn[nH]c3)cc12 [S3–11] | >100 µM | 4.79 µM | 21 µM | > 100 µM
Cc1c(-c2ccccc2F)[nH]c2ccc(CNC(=O)CCc3cnccn3)cc12 [S3–12] | >100 µM | 3.93 µM | 17.7 µM | > 100 µM
CC(=O)NCCC(=O)NCc1ccc2[nH]c(-c3ccccc3F)c(C)c2c1 [S3–13] | >100 µM | 11.7 µM | – | > 100 µM

Now from value to compound, other results behind:

AR-TIF2 PPIB Cell Loss (U-2 OS cells) | IC50 (AR-LBD and SRC1) | IC50 (AR-V7) | Compound | GI50 [1]
>100 µM | 2.5 µM | 46 µM | Cc1c(-c2ccccc2F)[nH]c2ccc(CNC(=O)c3ccc(CO)o3)cc12 [S3–14] | > 100 µM
>100 µM | 2.99 µM | 18.5 µM | Cc1c(-c2ccc(F)cc2)[nH]c2ccc(CNC(=O)c3ccc(CO)o3)cc12 [S3–15] | > 100 µM
